Experimental data published in the supplement of paper PMC10307832.

Legend:
Test in all cases: relative viability (nuclei count vs DMSO), 5 days (fraction); higher = more cells survive
NCI-H1793 = system: NCI-H1793
Summary of the method: (§1)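 Relative viability is defined as nuclei in treated wells over nuclei in vehicle wells. Duplicate plates were run and medians reported. Lung cancer cell lines in 1536-well plates were dosed by pin tool one day after seeding, with one drug or with a fixed anchor-drug dose plus five library-drug doses (not always all listed) in √10 steps, and nuclei were counted after 5 days.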

NCI-H1915 = system: NCI-H1915
Summary of the method: as §1

NCI-H1944 = system: NCI-H1944
Summary of the method: as §1

NCI-H2126 = system: NCI-H2126
Summary of the method: as §1

NCI-H2347 = system: NCI-H2347
Summary of the method: as §1

NCI-H3122 = system: NCI-H3122
Summary of the method: as §1

NCI-H322M = system: NCI-H322M
Summary of the method: as §1

NCI-H441 = system: NCI-H441
Summary of the method: as §1

NCI-H650 = system: NCI-H650
Summary of the method: as §1

NCI-H838 = system: NCI-H838
Summary of the method: as §1

SK-LU-1 = system: SK-LU-1
Summary of the method: as §1

SW 1573 = system: SW 1573
Summary of the method: as §1

Which relative viability (NCI-H1793; first compound 0.06325 µM) does the source give for CCNC(=O)c1noc(-c2cc(C(C)C)c(O)cc2O)c1-c1ccc(CN2CCOCC2)cc1 [Luminespib] + COc1cc2c(Oc3ccc(NC(=O)C4(C(=O)Nc5ccc(F)cc5)CC4)cc3F)ccnc2cc1OCCCN1CCOCC1 [Foretinib] (partner 0.25 µM) here?
The relative viability was 0.551.

And the relative viability (NCI-H1793; first compound 0.2 µM)?
The relative viability was 0.189.

And the relative viability (NCI-H1915; first compound 0.002 µM)?
The relative viability was 1.13.

And the relative viability (NCI-H1915; first compound 0.006325 µM)?
Its relative viability is 1.04.

And the relative viability (NCI-H1915; first compound 0.02 µM)?
Its relative viability is 1.02.

And the relative viability (NCI-H1915; first compound 0.06325 µM)?
The relative viability was 1.05.

And the relative viability (NCI-H1915; first compound 0.2 µM)?
Its relative viability is 0.826.

And the relative viability (NCI-H1944; first compound 0.002 µM)?
Its relative viability is 0.937.

What about the relative viability (NCI-H1944; first compound 0.006325 µM) of the same compound?
Its relative viability is 0.884.

And the relative viability (NCI-H1944; first compound 0.02 µM)?
Its relative viability is 0.653.

What about the relative viability (NCI-H1944; first compound 0.06325 µM) of the same compound?
Its relative viability is 0.767.

And the relative viability (NCI-H1944; first compound 0.2 µM)?
Its relative viability is 0.419.

And the relative viability (NCI-H2126; first compound 0.002 µM)?
The relative viability was 0.865.

And the relative viability (NCI-H2126; first compound 0.006325 µM)?
The relative viability was 1.07.

What about the relative viability (NCI-H2126; first compound 0.02 µM) of the same compound?
The relative viability was 0.882.

What about the relative viability (NCI-H2126; first compound 0.06325 µM) of the same compound?
The relative viability was 0.589.

And the relative viability (NCI-H2126; first compound 0.2 µM)?
The relative viability was 0.207.

What about the relative viability (NCI-H2347; first compound 0.002 µM) of the same compound?
Its relative viability is 0.987.

What about the relative viability (NCI-H2347; first compound 0.006325 µM) of the same compound?
The relative viability was 0.64.

What about the relative viability (NCI-H2347; first compound 0.02 µM) of the same compound?
Its relative viability is 0.59.

What about the relative viability (NCI-H2347; first compound 0.06325 µM) of the same compound?
Its relative viability is 0.922.

And the relative viability (NCI-H2347; first compound 0.2 µM)?
Its relative viability is 0.376.

And the relative viability (NCI-H3122; first compound 0.002 µM)?
Its relative viability is 1.07.

What about the relative viability (NCI-H3122; first compound 0.006325 µM) of the same compound?
The relative viability was 0.887.

And the relative viability (NCI-H3122; first compound 0.02 µM)?
Its relative viability is 0.925.

And the relative viability (NCI-H3122; first compound 0.06325 µM)?
The relative viability was 0.0893.

And the relative viability (NCI-H3122; first compound 0.2 µM)?
The relative viability was 0.0769.

And the relative viability (NCI-H322M; first compound 0.002 µM)?
Its relative viability is 0.932.

And the relative viability (NCI-H322M; first compound 0.006325 µM)?
The relative viability was 0.998.

And the relative viability (NCI-H322M; first compound 0.02 µM)?
The relative viability was 0.795.

And the relative viability (NCI-H322M; first compound 0.06325 µM)?
Its relative viability is 0.323.

And the relative viability (NCI-H322M; first compound 0.2 µM)?
The relative viability was 0.3.

And the relative viability (NCI-H441; first compound 0.002 µM)?
The relative viability was 0.927.

What about the relative viability (NCI-H441; first compound 0.006325 µM) of the same compound?
Its relative viability is 0.92.

And the relative viability (NCI-H441; first compound 0.02 µM)?
Its relative viability is 1.51.

What about the relative viability (NCI-H441; first compound 0.06325 µM) of the same compound?
Its relative viability is 0.196.

And the relative viability (NCI-H441; first compound 0.2 µM)?
The relative viability was 0.149.

What about the relative viability (NCI-H650; first compound 0.002 µM) of the same compound?
The relative viability was 1.09.

What about the relative viability (NCI-H650; first compound 0.006325 µM) of the same compound?
Its relative viability is 0.974.

What about the relative viability (NCI-H650; first compound 0.02 µM) of the same compound?
Its relative viability is 0.782.

What about the relative viability (NCI-H650; first compound 0.06325 µM) of the same compound?
Its relative viability is 0.811.

And the relative viability (NCI-H650; first compound 0.2 µM)?
The relative viability was 0.149.

What about the relative viability (NCI-H838; first compound 0.002 µM) of the same compound?
The relative viability was 1.08.

What about the relative viability (NCI-H838; first compound 0.006325 µM) of the same compound?
The relative viability was 1.06.

What about the relative viability (NCI-H838; first compound 0.02 µM) of the same compound?
Its relative viability is 1.07.

What about the relative viability (NCI-H838; first compound 0.06325 µM) of the same compound?
Its relative viability is 0.582.

What about the relative viability (NCI-H838; first compound 0.2 µM) of the same compound?
The relative viability was 0.148.

What about the relative viability (SK-LU-1; first compound 0.002 µM) of the same compound?
Its relative viability is 0.825.

What about the relative viability (SK-LU-1; first compound 0.006325 µM) of the same compound?
The relative viability was 0.559.

And the relative viability (SK-LU-1; first compound 0.02 µM)?
The relative viability was 0.392.

And the relative viability (SK-LU-1; first compound 0.06325 µM)?
Its relative viability is 0.131.

What about the relative viability (SK-LU-1; first compound 0.2 µM) of the same compound?
The relative viability was 0.133.

And the relative viability (SW 1573; first compound 0.002 µM)?
Its relative viability is 0.91.

And the relative viability (SW 1573; first compound 0.006325 µM)?
Its relative viability is 0.766.

What about the relative viability (SW 1573; first compound 0.02 µM) of the same compound?
Its relative viability is 0.521.

And the relative viability (SW 1573; first compound 0.06325 µM)?
The relative viability was 0.148.

What about the relative viability (SW 1573; first compound 0.2 µM) of the same compound?
The relative viability was 0.119.
